Laboratory results from patent US6211215A, “Heterocyclic compounds, their production and use” (Takeda Chemical Industries, Ltd., priority 1996, dated 2001).

Columns and labels:
Format in all cases: cell-based
MDA-MB-453 [1] = test: In vitro inhibition of cell proliferation (1); conditions: Homo sapiens, 72 h; Breast cancer MDA-MB-453; 3 days; SRB
Experimental: 100 μl (containing 2,000 cells) of a cell suspension of human breast cancer cell line MDA-MB-453 was seeded in each well of the 96-well microtiter plates. The cultures were incubated at 37° C. in a 5% carbon dioxide gas incubator. On the next day, 100 μl of the 2-fold serial dilution of each compound solution was added to each well and the mixtures were cultured for 3 days. The solution containing the compound was removed and the cells were washed with water. To the cells was added a 0.4% (W/V) dye SRB (dissolved in 1% acetic acid) solution to fix and stain the cell protein (Skehan P. et al., Journal of the National Cancer Institute Vol.82, pp.1107-1112, 1990). The dye solution was removed and the fixed and stained cell protein was washed. The protein-bound dye was extracted with 200 μl of 10 mM Tris buffer. The optical density of the extracted dye was determined at the wavelength of 540 nm to estimate the quantity of the cells in terms of the protein quantity. Designating the protein quantity in the control to which no compound solution was added as 100%, the proportion of the residual protein quantity in each treated group was calculated, and IC50, which was concentration of the compound required to inhibit the residual protein quantity to 50% the quantity of the control, was calculated.

HER2 = HER2 (Homo sapiens, UniProt P04626); test: Inhibition of phosphorylation of receptor tyrosine in human breast cancer cells (2), MCF-7, heregulin-stimulated; design: Human breast cancer cell line MCF-7 was used; endogenous in cells; host or cells: MCF-7; conditions: heregulin control = 100%, read-out: Phosphorylation of receptor tyrosine residue (%)
HER2, sequence (P04626 23-1255): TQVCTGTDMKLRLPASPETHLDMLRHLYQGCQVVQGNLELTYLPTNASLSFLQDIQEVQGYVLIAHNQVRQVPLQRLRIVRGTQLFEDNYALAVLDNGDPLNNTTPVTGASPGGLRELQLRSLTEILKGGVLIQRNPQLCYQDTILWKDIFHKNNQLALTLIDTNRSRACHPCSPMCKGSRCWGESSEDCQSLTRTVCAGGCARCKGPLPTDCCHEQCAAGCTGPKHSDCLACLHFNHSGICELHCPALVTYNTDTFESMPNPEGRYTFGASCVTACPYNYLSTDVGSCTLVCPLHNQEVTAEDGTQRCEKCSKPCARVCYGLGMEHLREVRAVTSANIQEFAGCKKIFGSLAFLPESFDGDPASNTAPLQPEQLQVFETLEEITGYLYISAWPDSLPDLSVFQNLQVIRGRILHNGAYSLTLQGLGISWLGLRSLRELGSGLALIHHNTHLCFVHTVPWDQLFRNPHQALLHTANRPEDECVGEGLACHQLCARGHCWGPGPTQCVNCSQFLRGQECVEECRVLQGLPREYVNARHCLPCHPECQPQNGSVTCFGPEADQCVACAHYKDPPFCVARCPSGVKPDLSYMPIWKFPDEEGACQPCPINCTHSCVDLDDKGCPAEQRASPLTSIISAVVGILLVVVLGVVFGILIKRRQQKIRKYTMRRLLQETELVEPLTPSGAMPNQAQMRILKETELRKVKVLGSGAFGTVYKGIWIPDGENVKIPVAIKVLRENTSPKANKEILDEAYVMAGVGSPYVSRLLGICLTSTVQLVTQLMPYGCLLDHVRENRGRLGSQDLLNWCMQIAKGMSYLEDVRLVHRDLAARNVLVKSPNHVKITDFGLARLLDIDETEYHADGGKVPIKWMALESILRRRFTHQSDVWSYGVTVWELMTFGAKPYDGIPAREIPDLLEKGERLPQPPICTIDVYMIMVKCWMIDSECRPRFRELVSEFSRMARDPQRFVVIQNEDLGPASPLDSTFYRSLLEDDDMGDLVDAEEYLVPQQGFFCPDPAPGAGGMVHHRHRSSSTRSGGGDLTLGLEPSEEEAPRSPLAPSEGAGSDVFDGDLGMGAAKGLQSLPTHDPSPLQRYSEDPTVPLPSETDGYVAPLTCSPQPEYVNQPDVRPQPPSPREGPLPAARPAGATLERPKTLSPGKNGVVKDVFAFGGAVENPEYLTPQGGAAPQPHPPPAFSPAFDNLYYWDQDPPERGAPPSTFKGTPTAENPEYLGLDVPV
Experimental: Human breast cancer cell line MCF-7 was used. 1,000 μl of the cell suspension (250,000 cells) was seeded in each well of the 24-well plates. The culture were incubated at 37° C. in a 5% carbon dioxide gas incubator. On the next day, 100 μl of the 10-fold serial dilution of each compound solution was added to each well and, 2 hours later, 0.5 μg/ml of heregulin was added to it. After 5 minutes the extract solution was added to it to terminate the reaction, and the protein fraction was extracted. The protein was fractionated by the protein electrophoresis. The protein in the electrophoretic gel was transferred to a nylon filter. The filter was allowed to react with the phosphorylated tyrosine-specific antibody. The reaction product was fluorescence-labeled to expose a photofilm. The intensity of the exposure on the photofilm was quantitated by an image-analyzing apparatus. The proportion of the phosphorylation of HER2 tyrosine in the cells added with a compound solution of each concentration was calculated designating the phosphorylation of HER2 tyrosine in the heregulin-added cells as 100%.

T-47D = test: Selective in vitro inhibition of breast cancer cell growth; conditions: Homo sapiens, T47D, 72 h; Mammary cancer T-47D; 3 days; SRB; read-out: IC50, inhibition of cell proliferation
Experimental: (§1) 100 μl (containing 2,000 cells) of a cell suspension of various human breast cancer cell lines shown in [Table 6] was seeded in each well of the 96-well microtiter plates. The cells were incubated at 37° C. in a 5% carbon dioxide gas incubator. Next day, 100 μl of a 2 fold serial dilution of a compound solution was added to each well. The cultures were incubated for 3 days. The solution containing the compound was removed and the cells were washed with water. To the cells was added a 0.4% (V/W) dye SRB (dissolved in 1% acetic acid) solution to fix and stain the cell protein. The dye solution was removed and the fixed and stained cell protein was washed. The protein-bound dye was extracted with 200 μl of 10 mM Tris buffer. The optical density of the extracted dye was determined at the wavelength of 540 nm to estimate the quantity of the cells in terms of the protein quantity. Designating the protein quantity in the control to which no compound solution was added as 100%, the proportion of the residual protein quantity in each treated group was calculated, and IC50, which was the concentration of the compound required to inhibit the residual protein quantity to 50% the quantity of the control, was calculated.

BT-20 = test: as above; conditions: Homo sapiens, 72 h; Mammary cancer BT-20; 3 days; SRB; read-out: IC50, inhibition of cell proliferation
Experimental: as §1

ASPC-1 = test: as above; conditions: Homo sapiens, ASPC1, 72 h; Pancreatic cancer ASPC-1; 3 days; SRB; read-out: IC50, inhibition of cell proliferation
Experimental: as §1

MRC5 = test: as above; conditions: Homo sapiens, 72 h; Normal MRC5; 3 days; SRB; read-out: IC50, inhibition of cell proliferation
Experimental: as §1

MDA-MB-468 = test: as above; conditions: Homo sapiens, 72 h; Mammary cancer MDA-MB-468; 3 days; SRB; read-out: IC50, inhibition of cell proliferation
Experimental: as §1

HSC-1 = test: as above; conditions: Homo sapiens, 72 h; Epidermal cancer HSC-1; 3 days; SRB; read-out: IC50, inhibition of cell proliferation
Experimental: as §1

MDA-MB-453 [2] = test: as above; conditions: Homo sapiens, 72 h; Mammary cancer MDA-MB-453; 3 days; SRB; read-out: IC50, inhibition of cell proliferation
Experimental: as §1

WiDr = test: as above; conditions: Homo sapiens, 72 h; Large intestinal cancer WiDr; 3 days; SRB; read-out: IC50, inhibition of cell proliferation
Experimental: as §1

SKBR3 = test: as above; conditions: Homo sapiens, SK-BR-3, 72 h; Mammary cancer SKBR3; 3 days; SRB; read-out: IC50, inhibition of cell proliferation
Experimental: as §1

BT-474 = test: as above; conditions: Homo sapiens, 72 h; Mammary cancer BT-474; 3 days; SRB; read-out: IC50, inhibition of cell proliferation
Experimental: as §1

- IC50 (MDA-MB-453 [1]): 250 nM
- activity at 0.4 µM (HER2; MCF7, 0.4 μM): 67%
- activity at 1.6 µM (HER2; MCF7, 1.6 μM): 41%
- activity at 6.3 µM (HER2; MCF7, 6.3 μM): 32%
- activity at 25 µM (HER2; MCF7, 25 μM): 30%
- IC50 (T-47D): 570 nM
- IC50 (BT-20): 520 nM
- IC50 (ASPC-1): 2500 nM
- IC50 (MDA-MB-468): 520 nM
- IC50 (HSC-1): 2100 nM
- IC50 (MDA-MB-453 [2]): 250 nM
- IC50 (WiDr): 2100 nM
- IC50 (SKBR3): 1000 nM
- IC50 (BT-474): 290 nM
Structure (SMILES): C(=C\c1nc(COc2ccc(CCCn3ccnc3)cc2)co1)/c1ccccc1 [Compound 8, 4-[4-[3-(1-imidazolyl)propyl]phenoxymethyl]-2-[(E)-2-phenylethenyl]oxazole]
- IC50 (MRC5): 15000 nM
